pEC50: −log10 of the molar value.
Experiments:
AsPC-1 = assay: Cytotoxic activity in vitro, SRB; format: cell-based, human
Description: (§1) Cytotoxic activity tests in-vitro. A measure of the cytotoxic activity of bis-acridines are the EC50 (concentration of studied compounds at which 50% inhibition of proliferation of tumorous is observed) of the evaluated compounds that inhibit the growth of 50% of cells in relation to a control. The cytotoxic activity of the compounds was determined using SRB, recommended by the US National Cancer Institute (USA). As the spectrum of 13 human origin neoplasms in bis-acridine screening studies, we used the following: HT 29 [CRC], HCT 116 [CRC], H 460 [lung cancer], MDA MB 231 [breast cancer], MCF-7 [breast cancer], UM UC3 [bladder cancer], PC 3 [prostate cancer], DU 145 [ prostate cancer], Panc-1 [pancreatic cancer], Mia Pa Ca 2 [pancreatic cancer], BXPC 3 [pancreatic cancer], AsPC1 [pancreatic cancer], Capan-2 [pancreatic cancer]. […] The DU-145 results were substantially a basis for selecting compounds and neoplasms for screening. The next neoplasms most sensitive to the cytotoxic activity of bis-acridines was the CRC HCT-116, as well as breast cancer MBA-MB-231. […] The cytotoxic activity of the remaining bis-acridines is significant or high (EC50 in the range from 1 to 0.04 μM). […] Panc-1, MiaPaCa-2 and Capan-2 are more sensitive, whereas for AsPC-1 and BxPC-3 this activity is at least an order of magnitude smaller.

BxPC-3 = assay: Cytotoxic activity in vitro, SRB; format: cell-based, human
Description: as §1

DU-145 = assay: Cytotoxic activity in vitro, SRB; format: cell-based, human
Description: as §1

HCT-116 = assay: Cytotoxic activity in vitro, SRB; format: cell-based, human
Description: as §1

MiaPaCa-2 = assay: Cytotoxic activity in vitro, SRB; format: cell-based, human
Description: as §1

PANC-1 = assay: Cytotoxic activity in vitro, SRB; format: cell-based, human
Description: as §1

PANC 1 = assay: Anti-neoplasmic activity against xenograft in hairless mice; format: in vivo
Description: (§2) For this, we selected 26 bis-acridines, mainly on the basis of the cytotoxic activity. We performed 34 series of experiments evaluating the anti-neoplasmic activity on xenografts in hairless mice against eleven neoplasms of human origin from the determination of the cytotoxic activity of bis-acridines (table 4). The tumours were injected subcutaneously to hairless mice of 5-weeks, female Crl:Nu-Foxnlnu, at a rate of 5×10^6 cells per mouse. After attaining a tumour of about 100 mm^3 or 200 mm^3 in depending on the neoplasm and its take this was 8 or even 30 days, and began therapy. On the day therapy was initiated, we randomised the animals and divided them into groups. Test groups were from 6 to 8 animals, and controls had from 8 to 14 animals. Each compound was tested at three differentiated doses.
(§3) The preparations were administered intravenously (i.v.) twice weekly for 4 weeks (thrice weekly for rapidly growing neoplasms). In several series, we used intraperitoneally (i.p.) administration in the same scheme. […] The therapeutic efficacy of the tested formulations was evaluated by measuring tumour size (length and width measurements of the tumour on the basis of the calculated tumour volume). Tumours were measured twice weekly for a period of about 30 days for fast-growing neoplasms, as well as about 60 days for the slow-growing neoplasms. The tumour volume in the treated groups compared with the control group. On this basis, inhibition of tumour growth was calculated using the following formula: Tumour growth inhibition TGI [%]=100−(ΔVT/ΔVC×100) Where ΔVT—is mean the tumour volume in animals in the group treated at the given day of treatment, minus the mean tumour volume in animals at the date of commencement of therapy. ΔVC is mean tumour volume in animals in the control group on a given day of treatment minus the average tumour volume of animals on the date of commencement of therapy. The results of the tests of anti-neoplasmic activity conducted in xenografts of human-origin neoplasms in mice are shown in Table 5.
(§4) The result above was accepted only in the case that the dose administered in all animals or more than half of the animals that survived to the end of the experiment. In addition, the evaluation was the day that the administration of the preparation was already completed: for the fast-growing neoplasms (eg. HCT116) this was in the days from 15 to 26, while for slow-growing neoplasms (eg. Panc 1) on a day from 34 to 60. […] In addition, the maximum inhibition of neoplasms could be identified in the day, in which there were no factors that could change the value TGI value.
(§5) Such factors may include: a significant decrease in body weight, the appearance of observable toxaemia, excessive rate of tumour growth: tumours in excess of 2000 mm^3 and all animals alive on that day.

HT-29 = assay: Cytotoxic activity in vitro, SRB; format: cell-based, human
Description: as §1

MDA-MB-231 = assay: Cytotoxic activity in vitro, SRB; format: cell-based, human
Description: as §1

DU 145 = assay: Anti-neoplasmic activity against xenograft in hairless mice; format: in vivo; conditions: single 8 mg/kg
Description: as §2, §3, §4, §5

H-460 = assay: Cytotoxic activity in vitro, SRB; format: cell-based, human
Description: as §1

H 460 = assay: Anti-neoplasmic activity against xenograft in hairless mice; format: in vivo
Description: as §2, §3, §4, §5

UM-UC-3 = assay: Cytotoxic activity in vitro, SRB; format: cell-based, human
Description: as §1

MCF-7 = assay: Cytotoxic activity in vitro, SRB; format: cell-based, human
Description: as §1

PC-3 = assay: Cytotoxic activity in vitro, SRB; format: cell-based, human
Description: as §1

HCT 116 = assay: Anti-neoplasmic activity against xenograft in hairless mice; format: in vivo; conditions: series 8, i.p., day 23
Description: as §2, §3, §4, §5

Capan-2 = assay: Cytotoxic activity in vitro, SRB; format: cell-based, human
Description: as §1

BXPC 3 = assay: Anti-neoplasmic activity against xenograft in hairless mice; format: in vivo; conditions: series 25, i.v., single 20 mg/kg, total 160 mg/kg, day 29
Description: as §2, §3, §4, §5

Row | Molecule | pEC50 (AsPC-1) | pEC50 (BxPC-3) | pEC50 (DU-145) | pEC50 (HCT-116) | pEC50 (MiaPaCa-2) | pEC50 (PANC-1) | pEC50 (HT-29) | pEC50 (MDA-MB-231) | pEC50 (H-460) | pEC50 (UM-UC-3) | pEC50 (MCF-7) | further results
1 | 1-[3-(8-hydroxy-methylimidazo[4,5,1-de]-acridin-6-on-5-yl)aminopropyl]-4-[3′-(1′-nitroacridin-1-yl)-aminopropyl]piperazine [C-2051] | 6.82 | 6.82 | 7.62 | 7.57 | 7.74 | 7.41 | – | – | – | – | – | TGI [%] [100 − (ΔVT/ΔVC × 100] (PANC 1; series 27, i.v., single 2 mg/kg, total 16 mg/kg, day 40, *at least half of animals did not survive): 68* %
2 | Cc1ccc(NCCNCCNc2c3ccccc3nc3cccc([N+](=O)[O-])c23)c2c(=O)c3ccccc3[nH]c12 [C-1965, 9-{N-[(4-methyl-9(10H)-acridono-1-yl)aminoethyl]ethylamino}-1′-nitroacridine] | – | – | 6.61 | – | – | 6.67 | 6.86 | 6.86 | – | – | – | TGI [%] [100 − (ΔVT/ΔVC × 100] (DU 145; series 1, i.p., total 40 mg/kg, day 35, *at least half of animals did not survive): 61* %
3 | Cc1ccc([N+](=O)[O-])c2c(NCCCN3CCN(CCCNc4ccc(C)c5[nH]c6ccccc6c(=O)c45)CC3)c3ccccc3nc12 [C-2017, 1-[3-(4-methyl-9(10H)-acridono-1-yl)aminopropyl]-1-[3′-(4′-methyl-1′-nitroacridin-1-yl)-aminopropyl]piperazine] | – | – | 7.34 | 7.33 | 7.17 | – | 7.21 | 7.32 | 7.40 | – | – | TGI [%] [100 − (ΔVT/ΔVC × 100] (DU 145; series 2, i.p., total 48 mg/kg, day 35): 25%; TGI [%] [100 − (ΔVT/ΔVC × 100] (H 460; series 5, i.p., single 5 mg/kg, total 30 mg/kg, day 14): 6%; TGI [%] [100 − (ΔVT/ΔVC × 100] (PANC 1; series 31, i.v., single 15 mg/kg, total 120 mg/kg, day 51): 75%
4 | Cc1ccc([N+](=O)[O-])c2c(NCCCNCCCNc3ccc(C)c4[nH]c5ccccc5c(=O)c34)c3ccccc3nc12 [C-2022, 9-{N-[(4-methyl-9(10H)-acridono-1-yl)aminopropyl]propylamino}-4′-methyl-1′-nitroacridine] | – | – | 6.89 | 7.07 | – | 6.79 | 5.89 | – | 7.17 | 6.98 | – | TGI [%] [100 − (ΔVT/ΔVC × 100] (H 460; series 5, i.p., single 10 mg/kg, total 60 mg/kg, day 14): 25%
5 | CN(CCCNc1c2ccccc2nc2cccc([N+](=O)[O-])c12)CCCNc1ccc([N+](=O)[O-])c2[nH]c3ccccc3c(=O)c12 [C-2026, 9-{N-[(4-nitro-9(10H)acridono-1-yl)aminopropyl]-N-methylaminopropylamino}-1′-nitroacridine] | 7.18 | – | 7.62 | 6.59 | 6.99 | 7.55 | 7.17 | 7.55 | 8.00 | 7.54 | 6.16 | pEC50 (PC-3): 7.29; TGI [%] [100 − (ΔVT/ΔVC × 100] (H 460; series 16, i.v., single 1 mg/kg, total 5 mg/kg, day 15): 14%; TGI [%] [100 − (ΔVT/ΔVC × 100] (H 460; series 16, i.v., single 4 mg/kg, total 16 mg/kg, day 14, *at least half of animals did not survive): 35* %
6 | Cc1ccc([N+](=O)[O-])c2c(NCCCN(C)CCCNc3ccc([N+](=O)[O-])c4[nH]c5ccccc5c(=O)c34)c3ccccc3nc12 [C-2029, 9-{N-[(4-nitro-9(10H)acridono-1-yl)aminopropyl]-N-methylaminopropylamino}-4′-methyl-1′-nitroacridine] | – | – | 7.36 | 7.13 | – | 6.96 | 6.64 | – | 7.26 | 7.27 | – | TGI [%] [100 − (ΔVT/ΔVC × 100] (HCT 116; single 20 mg/kg, total 100 mg/kg): 52%
7 | Cc1ccc([N+](=O)[O-])c2c(NCCCN3CCN(CCCNc4ccc([N+](=O)[O-])c5[nH]c6ccccc6c(=O)c45)CC3)c3ccccc3nc12 [C-2030, 1-[3-(4-nitro-9(10H)-acridono-1-yl)aminopropyl]-4-[3′-(4′-methyl-1′-nitroacridin-1-yl)-aminopropyl]piperazine] | – | – | 7.39 | 7.08 | 6.97 | 6.89 | – | – | 7.40 | 7.20 | – | pEC50 (PC-3): 6.44; TGI [%] [100 − (ΔVT/ΔVC × 100] (H 460; series 6, i.v., single 10 mg/kg, total 60 mg/kg, day 17, *at least half of animals did not survive): 24* %
8 | O=c1c2ccccc2[nH]c2c([N+](=O)[O-])ccc(NCCNCCNCCNc3c4ccccc4nc4cccc([N+](=O)[O-])c34)c12 [C-2033, 9-[N-(4-nitro-9(10H)acridono-1-yl)-aminoethylaminoethylamino-ethylamino]-1′-nitroacridine] | – | – | 8.00 | 7.72 | 7.32 | 7.42 | – | 7.49 | – | 7.82 | 7.14 | pEC50 (PC-3): 7.49; TGI [%] [100 − (ΔVT/ΔVC × 100] (HCT 116; single 3 mg/kg, total 21 mg/kg): 37%
9 | O=c1c2ccccc2n2cnc3ccc(NCCNCCNCCNc4c5ccccc5nc5cccc([N+](=O)[O-])c45)c1c32 [C-2037] | 7.07 | 6.86 | 7.40 | 6.99 | 7.19 | 7.43 | – | 7.57 | – | – | 7.09 | pEC50 (Capan-2): 7.36; TGI [%] [100 − (ΔVT/ΔVC × 100] (PANC 1; series 17, i.v., single 4 mg/kg, total 16 mg/kg, day 39): 60%
10 | CN(CCCNc1c2ccccc2nc2cccc([N+](=O)[O-])c12)CCCNc1ccc2ncn3c4ccc(O)cc4c(=O)c1c23 [C-2042, 9-{N-[(8-hydroxyimidazo[4,5,1-de]-acridin-6-on-5-yl)aminopropyl]-N-methylaminopropylamino}-1′-nitroacridine] | 7.09 | 7.09 | 7.68 | 7.74 | 7.33 | 7.26 | – | 7.74 | – | – | 7.31 | pEC50 (Capan-2): 7.54; TGI [%] [100 − (ΔVT/ΔVC × 100] (PANC 1; series 17, i.v., single 4 mg/kg, total 20 mg/kg, day 39, *at least half of animals did not survive): 33* %
11 | Cc1ccc([N+](=O)[O-])c2c(NCCCN3CCN(CCCNc4ccc5ncn6c7ccccc7c(=O)c4c56)CC3)c3ccccc3nc12 [C-2050, 1-[3-(imidazo[4,5,1-de]-acridin-6-on-5-yl)aminopropyl]-4-[3′-(4′-methyl-1′-nitroacridin-1-yl)-aminopropyl]piperazine] | 6.62 | 6.45 | 7.21 | 7.35 | 7.24 | 7.19 | – | – | – | – | – | TGI [%] [100 − (ΔVT/ΔVC × 100] (BXPC 3): 40%; TGI [%] [100 − (ΔVT/ΔVC × 100] (PANC 1; series 24, i.v., single 20 mg/kg, total 160 mg/kg, day 50): 64%; TGI [%] [100 − (ΔVT/ΔVC × 100] (PANC 1; series 26, i.v., single 30 mg/kg, total 160 mg/kg, day 40): 64%

Source: patent US10202349B2, “Asymmetric bis-acridines with antitumour activity and their uses” (POLITECHNIKA GDAŃSKA, priority 2015, dated 2019)
